≈ marks a conversion by molar mass, not a printed value. Where two headings read alike, the source gives them in different places.
Assays:
Type in all cases: physicochemical
[1] = Solution formulation feasibility study: covalent aggregates by SEC; details: pH values of 7.0-8.5
Protocol: Solutions were filtered through […] PVDF filters. In a laminar flow hood, the solutions were filled into glass vials. Vials were capped, and stored at 5° C., 25° C. and 30° C. Samples were withdrawn and submitted for testing as follows: (a) initial testing; (b) two weeks; and (c) one month. The formation of covalent aggregates was measured by size-exclusion chromatography (SEC).

[2] = Effect of antioxidants: chemical stability by RP-HPLC (total impurities, Trp oxidation); details: refrigerated condition
Protocol: Solutions were filtered through […] PVDF filters. In a laminar flow hood, the solutions were filled into glass vials. Vials were capped, and stored at 5° C., 25° C. and 30° C. Four formulations comprising Compound 1 were prepared to evaluate the stabilization efficacy of antioxidants, namely, EDTA, citrate and methionine. […] Subsequently, a fifth sample containing higher concentration of methionine (100 mM vs. 10 mM) was prepared to evaluate the effect of methionine concentration (Table 15, Lot No. 26). Samples were prepared, and stored at 5° C., 25° C. and 30° C. for up to 3 months. At appropriate times, stability-indicating assays were performed to assess the physical and chemical stability.
At 25° C. and 30° C., there are significant differences in stabilization efficacy.

[3] = Solubility of Compound 1 at 25° C. between pH 5.0 and pH 7.0 (UV-Vis at 280 nm)
Protocol: All solutions comprised 10 mM tris (1.21 g/L) and 0.05% EDTA (0.5 g/L). The solution pH was titrated using either 1N hydrochloric acid or concentrated tris base stock solution.
The concentration of Compound 1 was measured at 280 nm by a UV-Vis spectrophotometer (SoloVPE). UV-Vis spectrophotometer is commonly used for quantification of proteins or peptides in solution. A characteristic UV absorption spectrum around 280 nm is predominately from the aromatic amino acids such as tryptophan (Trp, W) and tyrosine (Tyr, Y). When the molar extinction coefficient of the protein or peptide is known, the Beer-Lambert law is used to accurately quantitate amount of protein or peptide by UV absorbance, assuming the molecule contains no UV-absorbing non-proteinaceous components such as bound nucleotide cofactors, heme, or iron-sulfur centers. Compound 1 has tyrosine amino acid residues at positions 10 and 13 and has a tryptophan amino acid residue at position 25 and has an extinction coefficient of 1.86 mL·mg^−1·cm^−1 (as calculated by the Pace Method). Measuring the peptide concentration at different pH conditions by this method is appropriate for Compound 1.

stability in certain formulations [1]: sub-optimal stability
chemical degradation by RP-HPLC [2]: not substantial
solubility ([3]; 10 mM tris buffer with 0.05% EDTA, aqueous buffer, Solution pH 6.16, 10 mM tris and 0.05% EDTA, 25° C., read-out: Compound 1 concentration in solution): 14.5 mg/mL (≈ 3.19 mM)
solubility ([3]; 10 mM tris buffer with 0.05% EDTA, aqueous buffer, Solution pH 6.84, 10 mM tris and 0.05% EDTA, 25° C., read-out: Compound 1 concentration in solution): 44.6 mg/mL (≈ 9.76 mM)
Compound 1 concentration in solution ([3]; Solution pH 5.31, 10 mM tris and 0.05% EDTA, 25° C.): 0.00 mg/mL
solubility ([3]; lower pH values (e.g. pH 5.0 to 6.5)): sub-optimal solubility
solubility (change with pH) ([3]; pH increased from 5.3 to 6.8): increased significantly
solubility by extrapolation of the data ([3]; pH values of 7.0 and above): higher
Structure (SMILES): CC(C)C[C@H](NC(=O)[C@H](CC(C)C)NC(=O)[C@H](Cc1c[nH]c2ccccc12)NC(=O)[C@H](CCC(=O)O)NC(=O)[C@@H](NC(=O)[C@H](Cc1ccccc1)NC(=O)[C@H](CCC(=O)O)NC(=O)[C@H](CCCCNC(=O)COCCOCCNC(=O)COCCOCCNC(=O)CC[C@H](NC(=O)CCCCCCCCCCCCCCCCCCC(=O)O)C(=O)O)NC(=O)[C@H](C)NC(=O)[C@H](CCCCN)NC(=O)[C@H](CCCCN)NC(=O)[C@H](CCC(=O)O)NC(=O)[C@H](CC(=O)O)NC(=O)[C@H](CC(C)C)NC(=O)[C@H](Cc1ccc(O)cc1)NC(=O)[C@H](CCCCN)NC(=O)[C@H](CO)NC(=O)[C@H](Cc1ccc(O)cc1)NC(=O)[C@H](CC(=O)O)NC(=O)[C@H](CO)NC(=O)[C@@H](NC(=O)[C@H](Cc1ccccc1)NC(=O)[C@@H](NC(=O)CNC(=O)[C@H](CCC(N)=O)NC(=O)C(C)(C)NC(=O)[C@@H](N)Cc1c[nH]cn1)[C@@H](C)O)[C@@H](C)O)C(C)C)C(=O)N[C@@H](CCC(=O)O)C(=O)NCC(=O)NCC(=O)N1CCC[C@H]1C(=O)N[C@@H](CO)C(=O)N[C@@H](CO)C(=O)NCC(N)=O [Compound 1]
